# Results published in PubChem BioAssay (NCI).
#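 Results reflect a 48-hour exposure of cells in 96-well plates to compound at five concentrations. TGI marks complete inhibition of growth.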
# Experiments:
# Experiment in all cases: NCI tumour cell line growth inhibition, 48 h
# 786-0 renal = test system: 786-0 renal
# A498 renal = test system: A498 renal
# A549 NSCLC = test system: A549 NSCLC
# ACHN renal = test system: ACHN renal
# BT-549 breast = test system: BT-549 breast
# CAKI-1 renal = test system: CAKI-1 renal
# CCRF-CEM leukemia = test system: CCRF-CEM leukemia
# COLO 205 colon = test system: COLO 205 colon
# DU-145 prostate = test system: DU-145 prostate
# EKVX NSCLC = test system: EKVX NSCLC
# HCC-2998 colon = test system: HCC-2998 colon
# HCT-116 colon = test system: HCT-116 colon
# HCT-15 colon = test system: HCT-15 colon
# HOP-62 NSCLC = test system: HOP-62 NSCLC
# HOP-92 NSCLC = test system: HOP-92 NSCLC
# HS 578T breast = test system: HS 578T breast
# HT29 colon = test system: HT29 colon
# IGROV1 ovarian = test system: IGROV1 ovarian
# K-562 leukemia = test system: K-562 leukemia
# KM12 colon = test system: KM12 colon
# LOX IMVI melanoma = test system: LOX IMVI melanoma
# M14 melanoma = test system: M14 melanoma
# MALME-3M melanoma = test system: MALME-3M melanoma
# MCF7 breast = test system: MCF7 breast
# MDA-MB-231 breast = test system: MDA-MB-231 breast
# MDA-MB-435 = test system: MDA-MB-435
# MDA-N = test system: MDA-N
# MOLT-4 leukemia = test system: MOLT-4 leukemia
# NCI-H226 lung = test system: NCI-H226 lung
# NCI-H23 lung = test system: NCI-H23 lung
# NCI-H460 lung = test system: NCI-H460 lung
# NCI-H522 lung = test system: NCI-H522 lung
# NCI/ADR-RES ovarian = test system: NCI/ADR-RES ovarian
# OVCAR-5 ovarian = test system: OVCAR-5 ovarian
# OVCAR-8 ovarian = test system: OVCAR-8 ovarian
# PC-3 prostate = test system: PC-3 prostate
# RPMI-8226 leukemia = test system: RPMI-8226 leukemia
# RXF 393 renal = test system: RXF 393 renal
# SF-268 CNS = test system: SF-268 CNS
# SF-295 CNS = test system: SF-295 CNS
# SF-539 CNS = test system: SF-539 CNS
# SK-MEL-2 melanoma = test system: SK-MEL-2 melanoma
# SK-MEL-28 melanoma = test system: SK-MEL-28 melanoma
# SK-MEL-5 melanoma = test system: SK-MEL-5 melanoma
# SK-OV-3 ovarian = test system: SK-OV-3 ovarian
# SN12C renal = test system: SN12C renal
# SNB-19 CNS = test system: SNB-19 CNS
# SNB-75 CNS = test system: SNB-75 CNS
# SR leukemia = test system: SR leukemia
# SW-620 colon = test system: SW-620 colon
# U251 CNS = test system: U251 CNS
# UACC-257 melanoma = test system: UACC-257 melanoma
# UACC-62 melanoma = test system: UACC-62 melanoma
# UO-31 renal = test system: UO-31 renal
compound,measurement,setting,value
Nc1ccc(-c2nc3ccc(F)cc3s2)cc1I,TGI,786-0 renal,> 100 µM
same,TGI,A498 renal,> 100 µM
same,TGI,A549 NSCLC,> 100 µM
same,TGI,ACHN renal,> 100 µM
same,TGI,BT-549 breast,> 100 µM
same,TGI,CAKI-1 renal,> 100 µM
same,TGI,CCRF-CEM leukemia,> 100 µM
same,TGI,COLO 205 colon,> 100 µM
same,TGI,DU-145 prostate,> 100 µM
same,TGI,EKVX NSCLC,> 100 µM
same,TGI,HCC-2998 colon,> 100 µM
same,TGI,HCT-116 colon,> 100 µM
same,TGI,HCT-15 colon,> 100 µM
same,TGI,HOP-62 NSCLC,> 100 µM
same,TGI,HOP-92 NSCLC,> 100 µM
same,TGI,HS 578T breast,> 100 µM
same,TGI,HT29 colon,> 100 µM
same,TGI,IGROV1 ovarian,> 100 µM
same,TGI,K-562 leukemia,> 100 µM
same,TGI,KM12 colon,> 100 µM
same,TGI,LOX IMVI melanoma,> 100 µM
same,TGI,M14 melanoma,> 100 µM
same,TGI,MALME-3M melanoma,> 100 µM
same,TGI,MCF7 breast,> 100 µM
same,TGI,MDA-MB-231 breast,> 100 µM
same,TGI,MDA-MB-435,> 100 µM
same,TGI,MDA-N,> 100 µM
same,TGI,MOLT-4 leukemia,> 100 µM
same,TGI,NCI-H226 lung,> 100 µM
same,TGI,NCI-H23 lung,> 100 µM
same,TGI,NCI-H460 lung,> 100 µM
same,TGI,NCI-H522 lung,> 100 µM
same,TGI,NCI/ADR-RES ovarian,> 100 µM
same,TGI,OVCAR-5 ovarian,> 100 µM
same,TGI,OVCAR-8 ovarian,> 100 µM
same,TGI,PC-3 prostate,> 100 µM
same,TGI,RPMI-8226 leukemia,> 100 µM
same,TGI,RXF 393 renal,> 67.9 µM
same,TGI,SF-268 CNS,> 100 µM
same,TGI,SF-295 CNS,> 100 µM
same,TGI,SF-539 CNS,> 100 µM
same,TGI,SK-MEL-2 melanoma,> 100 µM
same,TGI,SK-MEL-28 melanoma,> 100 µM
same,TGI,SK-MEL-5 melanoma,> 100 µM
same,TGI,SK-OV-3 ovarian,> 100 µM
same,TGI,SN12C renal,> 100 µM
same,TGI,SNB-19 CNS,> 100 µM
same,TGI,SNB-75 CNS,> 76.1 µM
same,TGI,SR leukemia,> 100 µM
same,TGI,SW-620 colon,> 100 µM
same,TGI,U251 CNS,> 100 µM
same,TGI,UACC-257 melanoma,> 100 µM
same,TGI,UACC-62 melanoma,> 100 µM
same,TGI,UO-31 renal,> 100 µM
